“Also recorded” adds a separate entry of the source.
Columns and labels:
[1] = system: L-Glu induced ion channel activity in plants; details: Mayerhoff et al. 2005. Planta. 222:418; cited from earlier work
[2] = system: LR primordia; experiment: Microscopic analysis of LR primordia (LRP) formation and elongation; type: in vivo, Arabidopsis thaliana; details: 400 μM DNQX vs DMSO control
Source text: B. DMSO control had fully emerged LR and more LRPs Arrows indicate an LRP that is inhibited, (A) or a fully emerged LR, (B).
(§1) The genetic and physiological analyses described above were complemented with pharmacological studies where the functions of AtGLRs were inhibited with iGLR specific inhibitors/antagonists. […] L-Glu is the bioactive ligand for iGLRs. […] Thus the inhibitors of AtGLRs can block LR elongation drastically and specifically. Furthermore DNQX mediated LR elongation inhibition is reversed by L-Glu.

[3] = system: DR5::GUS; experiment: Histochemical GUS assay in auxin responsive reporter DR5::GUS seedlings; type: in vivo, Arabidopsis thaliana
Procedure: DR5::GUS reporter was grown for 10 days and subjected to histochemical GUS staining for 10 hrs. The development of blue color indicates the detection of the presence of auxins that function in the regulation and formation of lateral roots
To assess the role of auxins in the AtGLR response, the effect of DNQX on auxin levels were evaluated. Auxin responsive reporter plants carrying the expression system DR5::GUS were used in the histochemical assays. […] Similar results were reported in phosphate starvation studies (Nacry et al. 2005 Plant Physiol. 138:2061).

[4] = system: AtGLRs (PR and LR elongation of seedlings); experiment: Root elongation of seedlings on plates with the iGLR antagonist DNQX; type: in vivo, Arabidopsis thaliana
Procedure: A. Control, B. DNQX treated. Note the lack of LR in DNQX-treated seedlings (b) versus LR in DMSO control. Both plates contained 10 μM KNO3. DNQX is an inhibitor (antagonist) of animal iGLRs and plant GLRs. The lateral root in the DMSO control is indicated by an arrow.
Note glutamate is the natural binding chemical (ligand) to animal iGLRS and puataive ligand for plant GLRs.
The present invention describes the function for AtGLRs in N sensing, absorption (FIG. 3, Forde, B G. 2002. Annu. Rev. Plant Biol. 53:203), assimilation (FIG. 12), plant growth and development (FIG. 11, 13). These claims were validated with pharmacological (FIG. 6-9), physiological (FIG. 10, 11, 13) and immunobot analyses of N assimilatory enzymes (FIG. 12).
as §1

O=c1[nH]c2cc([N+](=O)[O-])c([N+](=O)[O-])cc2[nH]c1=O [DNQX, 6,7 dinitroquinoxaline-2-3-[1H,4H]-dione]
L-Glu induced ion channel activity in plants [1]: block L-Glu induced ion channel activity
Further elongation of LR primordia [2]: further elongation of primordia is inhibited; also recorded: inhibits number of LRP formed and their elongation
Number of LRP formed (LR primordia initiation) [2]: reduced the number of LR primordia initiation; also recorded: inhibits number of LRP formed
Auxin levels in PR and LR apex/primordia (DR5::GUS expression) ([3]; 400 μM DNQX, grown 10 days, GUS staining for 10 hrs, vs control plants): higher levels of auxins in PR and LR primordia; also recorded: hyper accumulation of auxins
LR and PR elongation of DR5::GUS seedlings ([3]; incubated with 400 μM DNQX): inhibition of LR and PR elongation
PR and LR growth and elongation ([4]; DNQX at 400 μM, DMSO control, plates with 10 μM KNO3): inhibit PR and LR elongation; also recorded: inhibit LR growth and elongation
Reversal of DNQX mediated inhibition by coincubation with L-Glu ([4]; coincubation with 10 mM L-glutamate): restored to normal growth; also recorded: can be reversed
Reversibility of DNQX mediated PR and LR inhibition ([4]; seedlings transferred to a media without DNQX): restored to normal growth; also recorded: reversibly and temporarily

Reference: patent publication US8889950B2, “Repression of AtGLR3.2 increases plant biomass” (The George Washington University, priority 2006, dated 2014)
